This is an account of results in ChEMBL document CHEMBL1909046, “DrugMatrix in vitro pharmacology data”.

Data set [1] concerns the target Tyrosine-protein kinase Fyn (Homo sapiens, UniProt P06241). Description: biochemical. Type of data set: cell-based, Insect cells.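 Also: enzymatic inhibition of Fyn kinase activity measured with Poly(Glu:Tyr) as the phosphorylation substrate.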
The target in data set [2] is Voltage-gated inwardly rectifying potassium channel KCNH2 (Homo sapiens, UniProt Q12809). Conditions: hek293.
For data set [3], the target named is T1, Calcitonin receptor (Homo sapiens, UniProt P30988).
T1 sequence (P30988 whole entry): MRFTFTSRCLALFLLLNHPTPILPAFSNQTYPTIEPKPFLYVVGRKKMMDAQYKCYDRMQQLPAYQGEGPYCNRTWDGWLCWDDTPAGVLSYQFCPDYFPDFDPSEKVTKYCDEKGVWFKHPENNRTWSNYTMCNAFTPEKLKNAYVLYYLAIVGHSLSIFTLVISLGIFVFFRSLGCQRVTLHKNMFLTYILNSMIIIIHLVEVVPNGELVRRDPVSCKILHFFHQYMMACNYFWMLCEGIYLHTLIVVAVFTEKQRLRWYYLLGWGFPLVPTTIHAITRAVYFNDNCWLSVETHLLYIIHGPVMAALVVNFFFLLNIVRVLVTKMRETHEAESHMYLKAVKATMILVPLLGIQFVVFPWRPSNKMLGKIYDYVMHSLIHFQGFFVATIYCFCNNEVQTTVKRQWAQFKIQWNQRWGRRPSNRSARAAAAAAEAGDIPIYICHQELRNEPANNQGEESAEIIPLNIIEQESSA
The format is cell membranes, Membrane. Conditions: t47d.

Data set [4] concerns the target T2, Receptor-type tyrosine-protein phosphatase C (Homo sapiens, UniProt P08575).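 Also: inhibition of CD45 enzyme activity measured using DiFMUP as substrate.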
T2 sequence (P08575 whole entry): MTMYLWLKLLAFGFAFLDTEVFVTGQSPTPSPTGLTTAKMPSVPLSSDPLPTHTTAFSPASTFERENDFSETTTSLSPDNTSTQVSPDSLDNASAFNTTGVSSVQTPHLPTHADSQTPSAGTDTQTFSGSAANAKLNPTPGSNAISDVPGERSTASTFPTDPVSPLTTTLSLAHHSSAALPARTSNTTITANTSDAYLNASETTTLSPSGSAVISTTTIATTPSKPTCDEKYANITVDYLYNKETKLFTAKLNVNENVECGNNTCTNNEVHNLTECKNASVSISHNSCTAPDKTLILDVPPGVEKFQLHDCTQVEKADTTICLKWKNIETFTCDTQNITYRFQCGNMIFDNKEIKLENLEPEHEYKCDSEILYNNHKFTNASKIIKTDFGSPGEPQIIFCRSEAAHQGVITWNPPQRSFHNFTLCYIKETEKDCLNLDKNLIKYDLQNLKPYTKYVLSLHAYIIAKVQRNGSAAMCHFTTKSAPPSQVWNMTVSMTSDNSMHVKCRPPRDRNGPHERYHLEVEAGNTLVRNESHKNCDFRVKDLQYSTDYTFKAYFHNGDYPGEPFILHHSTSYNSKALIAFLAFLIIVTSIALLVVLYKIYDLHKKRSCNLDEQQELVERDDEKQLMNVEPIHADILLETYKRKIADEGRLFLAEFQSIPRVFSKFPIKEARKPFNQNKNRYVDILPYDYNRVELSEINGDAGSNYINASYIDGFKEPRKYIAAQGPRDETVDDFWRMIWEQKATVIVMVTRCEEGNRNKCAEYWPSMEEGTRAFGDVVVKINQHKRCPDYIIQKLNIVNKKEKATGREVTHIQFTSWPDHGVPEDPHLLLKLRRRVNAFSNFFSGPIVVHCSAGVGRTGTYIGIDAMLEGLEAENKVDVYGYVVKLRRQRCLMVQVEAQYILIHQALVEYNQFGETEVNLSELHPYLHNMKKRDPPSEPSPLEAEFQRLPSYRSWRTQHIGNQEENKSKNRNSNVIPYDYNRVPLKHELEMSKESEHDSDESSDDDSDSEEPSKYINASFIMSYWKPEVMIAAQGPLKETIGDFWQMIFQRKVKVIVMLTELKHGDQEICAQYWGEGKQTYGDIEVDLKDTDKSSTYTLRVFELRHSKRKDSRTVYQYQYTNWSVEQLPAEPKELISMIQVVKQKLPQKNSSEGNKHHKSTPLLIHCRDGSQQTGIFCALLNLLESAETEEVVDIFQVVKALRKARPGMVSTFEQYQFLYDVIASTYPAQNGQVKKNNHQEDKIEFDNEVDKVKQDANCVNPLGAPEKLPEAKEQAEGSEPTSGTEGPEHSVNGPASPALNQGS
The arrangement: species or system Escherichia coli.

Data set [5] addresses Melanocortin receptor 5 (Homo sapiens, UniProt P33032). The format is cell membranes, HEK293, Membrane.
Data set [6] has as its target Mitogen-activated protein kinase 14 (Homo sapiens, UniProt Q16539). Also on record: species or system Escherichia coli.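 Also: inhibition of p38alpha enzyme activity in a biochemical kinase assay, with myelin basic protein serving as substrate.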
Also: in other assays of this panel Not Active means under 50% inhibition at 10 µM.

Melanocortin receptor 5, sequence (P33032 whole entry): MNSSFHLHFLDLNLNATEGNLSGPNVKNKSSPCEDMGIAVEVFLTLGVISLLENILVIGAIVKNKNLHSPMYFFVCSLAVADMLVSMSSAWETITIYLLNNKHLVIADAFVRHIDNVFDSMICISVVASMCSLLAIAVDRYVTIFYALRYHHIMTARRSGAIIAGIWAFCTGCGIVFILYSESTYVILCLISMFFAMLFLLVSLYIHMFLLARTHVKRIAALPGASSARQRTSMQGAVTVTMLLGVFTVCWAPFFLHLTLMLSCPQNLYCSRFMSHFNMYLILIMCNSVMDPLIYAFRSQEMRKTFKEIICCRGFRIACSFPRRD
Tyrosine-protein kinase Fyn, sequence (P06241 whole entry): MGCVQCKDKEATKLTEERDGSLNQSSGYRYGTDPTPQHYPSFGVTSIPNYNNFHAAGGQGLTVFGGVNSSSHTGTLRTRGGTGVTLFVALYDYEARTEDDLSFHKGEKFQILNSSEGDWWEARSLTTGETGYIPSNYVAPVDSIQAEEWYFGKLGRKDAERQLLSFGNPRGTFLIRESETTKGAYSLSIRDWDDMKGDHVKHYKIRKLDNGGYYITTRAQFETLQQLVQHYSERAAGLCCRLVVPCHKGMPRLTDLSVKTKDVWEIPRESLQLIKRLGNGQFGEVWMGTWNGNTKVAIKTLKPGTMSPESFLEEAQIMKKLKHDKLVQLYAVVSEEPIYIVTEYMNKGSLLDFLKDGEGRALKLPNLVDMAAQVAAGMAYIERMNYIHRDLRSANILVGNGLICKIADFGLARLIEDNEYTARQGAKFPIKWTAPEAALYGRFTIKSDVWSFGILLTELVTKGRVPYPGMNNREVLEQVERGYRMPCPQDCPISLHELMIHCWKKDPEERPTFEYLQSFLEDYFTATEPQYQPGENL
Mitogen-activated protein kinase 14, sequence (Q16539 whole entry): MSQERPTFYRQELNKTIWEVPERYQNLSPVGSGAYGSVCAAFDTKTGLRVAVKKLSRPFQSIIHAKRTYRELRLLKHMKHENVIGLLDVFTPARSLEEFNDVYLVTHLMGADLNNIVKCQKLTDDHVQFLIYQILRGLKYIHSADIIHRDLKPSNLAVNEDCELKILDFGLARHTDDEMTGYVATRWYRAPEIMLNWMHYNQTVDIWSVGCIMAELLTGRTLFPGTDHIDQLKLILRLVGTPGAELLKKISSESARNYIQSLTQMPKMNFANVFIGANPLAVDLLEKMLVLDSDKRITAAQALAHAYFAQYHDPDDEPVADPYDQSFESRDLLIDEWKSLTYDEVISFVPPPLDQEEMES
Voltage-gated inwardly rectifying potassium channel KCNH2, sequence (Q12809 whole entry): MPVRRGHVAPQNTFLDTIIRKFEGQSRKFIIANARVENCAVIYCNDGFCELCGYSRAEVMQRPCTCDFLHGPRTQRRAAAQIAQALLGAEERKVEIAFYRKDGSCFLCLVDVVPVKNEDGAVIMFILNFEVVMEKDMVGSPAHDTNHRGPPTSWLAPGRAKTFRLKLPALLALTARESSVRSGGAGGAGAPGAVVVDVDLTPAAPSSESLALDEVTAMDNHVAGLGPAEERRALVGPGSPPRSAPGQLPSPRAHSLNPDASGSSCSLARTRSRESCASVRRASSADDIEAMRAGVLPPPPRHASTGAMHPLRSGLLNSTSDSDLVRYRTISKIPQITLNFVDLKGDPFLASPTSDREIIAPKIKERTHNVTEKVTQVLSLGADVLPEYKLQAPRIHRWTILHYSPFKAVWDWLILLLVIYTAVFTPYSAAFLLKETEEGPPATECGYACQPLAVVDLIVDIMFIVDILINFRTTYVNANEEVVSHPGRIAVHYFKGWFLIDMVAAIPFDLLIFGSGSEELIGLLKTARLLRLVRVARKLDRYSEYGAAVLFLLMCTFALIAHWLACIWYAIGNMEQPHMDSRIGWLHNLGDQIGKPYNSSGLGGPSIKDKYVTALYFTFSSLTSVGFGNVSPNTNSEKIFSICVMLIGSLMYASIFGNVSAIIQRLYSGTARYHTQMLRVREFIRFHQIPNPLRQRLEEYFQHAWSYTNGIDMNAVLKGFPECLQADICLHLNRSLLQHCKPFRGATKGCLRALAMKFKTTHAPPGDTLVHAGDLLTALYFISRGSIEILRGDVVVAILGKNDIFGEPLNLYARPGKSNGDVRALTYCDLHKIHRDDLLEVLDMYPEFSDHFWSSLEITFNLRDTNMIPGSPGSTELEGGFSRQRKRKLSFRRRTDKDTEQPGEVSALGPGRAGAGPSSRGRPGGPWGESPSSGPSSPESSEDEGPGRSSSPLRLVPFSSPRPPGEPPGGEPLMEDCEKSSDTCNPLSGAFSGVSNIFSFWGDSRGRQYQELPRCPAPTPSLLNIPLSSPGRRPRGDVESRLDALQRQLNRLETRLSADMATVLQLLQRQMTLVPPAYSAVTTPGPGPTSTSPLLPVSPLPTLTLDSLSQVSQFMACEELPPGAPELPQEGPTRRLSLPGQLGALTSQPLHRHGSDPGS

`O=C(O)c1cccnc1Nc1cccc(C(F)(F)F)c1` [NIFLUMIC ACID]: the IC50 entry in data set [1] (insect cells), in data set [2], in data set [3], in data set [4], in data set [5] (hek293) and in data set [6] was “Not Active” each time. For the same compound, in data set [2], the Ki (in general, the dissociation constant of the complex between target and ligand, obtained from inhibition or displacement) is on record as “Not Active”.
Regarding `O=C(N/N=C/c1ccc([N+](=O)[O-])o1)c1cc([N+](=O)[O-])cc([N+](=O)[O-])c1O` [NIFURSOL], the half-inhibitory concentration (IC50) result in data set [1] (insect cells), in data set [2], in data set [3], in data set [4], in data set [5] (hek293) and in data set [6] was “Not Active” throughout. For the same compound, in data set [2], the Ki result is listed as “Not Active”.
Turning to `COC(=O)Nc1nc2ccc(C(=O)c3cccs3)cc2[nH]1` [NOCODAZOLE], the IC50 entry in data set [1] (insect cells), in data set [2], in data set [3], in data set [4], in data set [5] (hek293) and in data set [6] was “Not Active” throughout. Besides, the Ki entry in data set [2] is “Not Active”.
Take `C#CC1(O)CC[C@H]2[C@@H]3CCC4=CC(=O)CC[C@@H]4[C@H]3CC[C@@]21CC` (stereo partly specified) [NORGESTREL]: the IC50 result in data set [1] (insect cells), in data set [2], in data set [3], in data set [4], in data set [5] (hek293) and in data set [6] was “Not Active” each time. In addition, the Ki result in data set [2] is “Not Active”.
For the compound `COC(=O)Nc1nc2ccc([S+]([O-])c3ccccc3)cc2[nH]1` (stereo unspecified) [OXFENDAZOLE], the IC50 entry in data set [1] (insect cells), in data set [2], in data set [3], in data set [4], in data set [5] (hek293) and in data set [6] was “Not Active” in each case. Besides, the Ki result in data set [2] is on record as “Not Active”.
With `CC(=O)O[C@H]1C(=O)[C@@]2(C)[C@H]([C@H](OC(=O)c3ccccc3)[C@]3(O)C[C@H](OC(=O)[C@H](O)[C@@H](NC(=O)c4ccccc4)c4ccccc4)C(C)=C1C3(C)C)[C@]1(OC(C)=O)CO[C@@H]1C[C@@H]2O` [PACLITAXEL], the half-maximal inhibitory concentration (IC50) (as a rule, the point on the concentration scale where inhibition reaches its midpoint) in data set [1] (read-out: IC50) is 23900 nM; in data set [2], “Not Active”; in data set [3], “Not Active”; in data set [4], “Not Active”; in data set [5] (read-out: IC50), 17.1 µM; in data set [6], “Not Active”. The values for the Ki result in data set [2] and in data set [5] (read-out: Ki) were “Not Active” and 16.1 µM, respectively.
Consider `C[n+]1ccc(-c2cc[n+](C)cc2)cc1.[Cl-].[Cl-]` [PARAQUAT DICHLORIDE], for which the IC50 entry in data set [1] (insect cells), in data set [2], in data set [3], in data set [4], in data set [5] (hek293) and in data set [6] was “Not Active” in each case. In data set [2], the Ki entry is reported as “Not Active”.
For `CC(C)NCC(O)COc1cccc2[nH]ccc12` (stereo unspecified) [PINDOLOL], the IC50 entry in data set [1] (insect cells), in data set [2], in data set [3], in data set [4], in data set [5] (hek293) and in data set [6] was “Not Active” each time. The Ki entry in data set [2] is “Not Active”.
As to `CCn1cc(C(=O)O)c(=O)c2cnc(N3CCCC3)nc21` [PIROMIDIC ACID], the IC50 entry in data set [1] (insect cells), in data set [2], in data set [3], in data set [4], in data set [5] (hek293) and in data set [6] was “Not Active” throughout. The Ki entry in data set [2] was “Not Active”.
With `C[n+]1ccccc1/C=N/O.[Cl-]` [PRALIDOXIME CHLORIDE], the IC50 result in data set [1] (insect cells), in data set [2], in data set [3], in data set [4], in data set [5] (hek293) and in data set [6] was “Not Active” throughout. Besides, the Ki entry in data set [2] is given as “Not Active”.
On to `C[C@]12C=CC(=O)C=C1CC[C@@H]1[C@@H]2[C@@H](O)C[C@@]2(C)[C@H]1CC[C@]2(O)C(=O)CO` [PREDNISOLONE], for which the IC50 entry in data set [1] (insect cells), in data set [2], in data set [3], in data set [4], in data set [5] (hek293) and in data set [6] was “Not Active” throughout. Further, the Ki result in data set [2] is listed as “Not Active”.
Regarding `CC(=O)[C@H]1[C@H](C#N)C[C@H]2[C@@H]3CC=C4C[C@@H](O)CC[C@]4(C)[C@H]3CC[C@@]21C` [PREGNENOLONE CARBONITRILE], the IC50 entry in data set [1] (insect cells), in data set [2], in data set [3], in data set [4], in data set [5] (hek293) and in data set [6] was “Not Active” throughout. Besides, in data set [2], the Ki result is given as “Not Active”.
`CCCN(CCC)S(=O)(=O)c1ccc(C(=O)O)cc1` [PROBENECID]: the IC50 entry in data set [1] (insect cells), in data set [2], in data set [3], in data set [4], in data set [5] (hek293) and in data set [6] was “Not Active” in each case. In addition, the Ki entry in data set [2] was “Not Active”.
In the case of `CCCOc1ccc(C(=O)OCCN(CC)CC)cc1N` [PROPARACAINE], the IC50 entry in data set [1] (insect cells), in data set [2], in data set [3], in data set [4], in data set [5] (hek293) and in data set [6] was “Not Active” throughout. Also, in data set [2], the inhibition constant (Ki) result is “Not Active”.
Regarding `CC(C)c1cccc(C(C)C)c1O` [PROPOFOL], the IC50 entry in data set [1] (insect cells), in data set [2], in data set [3], in data set [4], in data set [5] (hek293) and in data set [6] was “Not Active” throughout. In addition, the Ki result in data set [2] is recorded as “Not Active”.
As to `C[C@@H]1O[C@@H](O[C@@H]2C=C3CC[C@@H]4[C@H](CC[C@]5(C)[C@@H](c6ccc(=O)oc6)CC[C@]45O)[C@@]3(C)CC2)[C@H](O)[C@H](O)[C@H]1O` [PROSCILLARIDIN], the IC50 result in data set [1] (insect cells), in data set [2], in data set [3], in data set [4], in data set [5] (hek293) and in data set [6] was “Not Active” throughout. Further, the Ki entry in data set [2] is “Not Active”.
For the compound `Oc1cccc(O)c1O` [PYROGALLOL], the IC50 is 997 nM in data set [1] (read-out: IC50); “Not Active” in data set [2]; “Not Active” in data set [3]; “Not Active” in data set [4]; “Not Active” in data set [5] (hek293); “Not Active” in data set [6]. In addition, in data set [2], the Ki result is recorded as “Not Active”.
Consider AURANOFIN, for which the IC50 is 1200 nM in data set [1] (insect cells, read-out: IC50); “Not Active” in data set [2]; “Not Active” in data set [3]; “Not Active” in data set [4]; “Not Active” in data set [5] (hek293); “Not Active” in data set [6]. For the same compound, the inhibitory constant (Ki) result in data set [2], in data set [3], in data set [4], in data set [5] (hek293) and in data set [6] was “Not Active” in each case.
